Results taken from US7772156B2, “Microbicidal compositions including a cyanodithiocarbimate and a second microbicide, and methods of using the same” (Buckman Laboratories International, Inc., priority 2006, dated 2010).
Where “and” joins values, the source holds several entries; their conditions need not be identical. Identical values can stand only once.

What was measured:
[1] = system: Aspergillus niger; experiment: Fungal evaluation: growth prevention of Aspergillus niger in mineral salts-glucose medium, synergism by the method of Kull; type: cell-based; settings: for X (QA/Qa+QB/Qb), Test 1 / X (QA/Qa+QB/Qb), Test 2 / X (QA/Qa+QB/Qb), Test 3: combination of S-chloromethyl-S'-hexylcyanodithioimidocarbimate (A) with the named second microbicide (B), Aspergillus niger, 7 days, 25° C., X<1 synergistic, X=1 additive, X>1 antagonistic; for QA = lowest concentration of compound A in the mixture which produced an end point: compound A in mixture with the named compound B; for Qb = lowest concentration of compound B acting alone which produced an end point: named compound B alone; for QB = lowest concentration of compound B in the mixture which produced an end point: named compound B in mixture with compound A
Procedure: Mineral salts-glucose medium was used. To prepare the medium, the following ingredients were added to 1 liter of deionized water: 0.7 g of KH2PO4; 0.7 g of MgSO4·7H2O; 1.0 g of HN4NO3; 0.005 g of NaCl; 0.002 g of FeSO4·7H2O; 0.002 g ZnSO4·7H2O; 0.001 g of MnSO4·7H2O; 10 g of Glucose. The pH of the medium was adjusted to 6 with 1N NaOH. The medium was distributed in 5 ml amounts in test tubes and autoclaved at 121° C. for 20 minutes. The fungus, Aspergillus niger, was grown on potato dextrose agar slant for 5 to 10 days and a spore suspension prepared by washing down the spores from the slant into a sterile saline solution. After addition of the biocides in the desired concentrations in the sterile mineral salts-glucose medium, the fungal spore suspension was added. The final spore concentration was approximately 10^6 cfu/ml. The inoculated media was incubated at 25° C. for 7 days. The experimental design is termed a […] in which each test concentration of compound A is combined with each test concentration of compound B.
End points for the various mixtures were then compared with the end points for the pure active ingredients alone in concomitantly prepared flasks or test tubes.
When the sum of QA/Qa and QB/Qb is greater than one, antagonism is indicated. When the sum is equal to one, additivity is indicated. When the sum is less than one, synergism exists.
For: X<1 A and B are synergistic • X=1 A and B are additive • X>1 A and B are antagonistic For combinations of cyanodithiocarbimate with the selected second microbicide, the calculated values of X in each case are: […]

[2] = cited from earlier work
[3] = complete prevention of growth of Aspergillus niger for seven days

Compound | X (QA/Qa+QB/Qb), Test 1 [1] | QA = lowest concentration of compound A in the mixture which produced an end point [1, 3] [ppm active ingredient] | Qb = lowest concentration of compound B acting alone which produced an end point [1, 3] [ppm active ingredient] | QB = lowest concentration of compound B in the mixture which produced an end point [1, 3] [ppm active ingredient] | X (QA/Qa+QB/Qb), Test 2 [1] | solubility in water [2] | X (QA/Qa+QB/Qb), Test 3 [1] | Qa = concentration of compound A acting alone which produced an end point ([1]; compound A alone, run concomitantly with the compound B, complete prevention of growth of Aspergillus niger for seven days)
CCCCCCCCn1sccc1=O [2-N-octyl-4-isothiazolin-3-one] | 0.64 | 0.1 | >0.175 | 0.025 | – | – | – | –
CCCCCCCCn1sc(Cl)c(Cl)c1=O [4,5-dichloro-2-N-octyl-4-isothiazolin-3-one] | 0.7 | 0.05 | 0.2 | 0.1 | 0.5 | – | – | –
O=C(CBr)OC/C=C\COC(=O)CBr [BBAB, 1,4-bis(bromoacetoxy)-2-butene] | – | – | – | – | – | extremely low | – | –
O=C(CBr)c1ccc(O)cc1 [BHAP, 2-bromo-4′-hydroxyacetophenone] | 1.22 | 0.3 | >8.0 | 1.0 | 1.0 | – | 0.8 | –
CCCCCCSC(=NC#N)SCCl [Compound A, S-Hexyl-S′-chloromethylcyanodithiocarbimate] | – | – | – | – | – | – | – | 0.3 ppm active ingredient and 0.25 ppm active ingredient and 0.175 ppm active ingredient and 0.35 ppm active ingredient and 0.2 ppm active ingredient
CCCCNC(=O)OCC#CI [IPBC, 3-iodo-2-propynyl butyl carbamate] | 0.86 | 0.025 | 0.35 | 0.05 | 0.3 | – | – | –
N#CSCSC#N [MTC, Methylene-bis(thiocyanate)] | 0.64 | 0.05 | >0.7 | 0.1 | 0.46 | – | 0.29 | –
N#CSCSc1nc2ccccc2s1 [TCMTB, 2-(Thiocyanomethylthio)benzothiazole] | 0.27 | 0.15 | 1.0 | 0.05 | 0.25 | – | 0.7 | –
